Data on 21 compounds can be found in ChEMBL document CHEMBL5104148, “Discovery of derivatives from Spartina alterniflora-sourced moiety as xanthine oxidase inhibitors to lower uric acid” (Bioorg Med Chem Lett, 2022).

Data set [1] is described as follows: Cytotoxicity against human L02 cells assessed as reduction in cell viability incubated for 24 hrs by MTT assay. The data set is classed as toxicity, cell-based.
The nature of data set [2]: AUC(0 to t) in rat at 1 mg/kg, iv measured after 24 hrs. The class given is ADME, organism-based. Further details: dose 1 mg/kg, time 24 hrs, route iv. As to conditions: in vivo.
Data set [3] can be described thus: AUC(0 to infinity) in rat at 1 mg/kg, iv measured after 24 hrs. Further details: dose 1 mg/kg, time 24 hrs, route iv. The note with it: in vivo. The class given is ADME, organism-based.
The nature of data set [4]: Cmax in rat at 3 mg/kg, po measured after 24 hrs. The data set is classed as ADME, organism-based. Further details: time 24 hrs, dose 3 mg/kg, route po. The note with it: in vivo.
Data set [5] deals with Mus musculus. Kind of data set: Anti-hyperuricemic activity against hypoxanthine and oteracil potassium induced hyperuricemia in Kunming mouse model assessed as alanine aminotransferase level at 5 mg/kg, IG administered daily (reference value: 28.05 +/- 8.478 U/L). The data set is classed as functional.
The test system of data set [6] is Mus musculus. The experiment in a line: Anti-hyperuricemic activity against hypoxanthine and oteracil potassium induced hyperuricemia in Kunming mouse model assessed as blood urea nitrogen level at 5 mg/kg, IG administered daily (reference value: 53.09 +/- 1.937 mg/dl). The class given is functional.
Data set [7] in a line: Clearance in rat at 1 mg/kg, iv measured after 24 hrs. The class given is ADME, organism-based. As to conditions: in vivo.
A short description of data set [8]: Tmax in rat at 1 mg/kg, iv measured after 24 hrs. The data set is classed as ADME, organism-based. As to conditions: in vivo.
Data set [9] in a line: Elimination half life in rat at 1 mg/kg, iv measured after 24 hrs. The data set is classed as ADME, organism-based. As to conditions: in vivo, read-out: beta t1/2 (converted).
Data set [10] relates to Mus musculus. The experiment in a line: Anti-hyperuricemic activity against hypoxanthine and oteracil potassium induced hyperuricemia in Kunming mouse model assessed as uric acid level at 5 mg/kg, IG administered daily (reference value: 631.6 +/- 103.1 uM). The class given is functional.
Data set [11] in a line: Elimination half life in rat at 3 mg/kg, po measured after 24 hrs. The class given is ADME, organism-based. As to conditions: in vivo, read-out: beta t1/2 (converted).
A short description of data set [12]: AUC(0 to infinity) in rat at 3 mg/kg, po measured after 24 hrs. The note with it: in vivo. The data set is classed as ADME, organism-based. Further details: dose 3 mg/kg, time 24 hrs, route po.
Data set [13] is described as follows: Tmax in rat at 3 mg/kg, po measured after 24 hrs. The data set is classed as ADME, organism-based. As to conditions: in vivo.
A short description of data set [14]: AUC(0 to t) in rat at 3 mg/kg, po measured after 24 hrs. The data set is classed as ADME, organism-based. On the set-up: dose 3 mg/kg, time 24 hrs, route po. The note with it: in vivo.
Data set [15] is described as follows: Oral bioavailability in rat at 3 mg/kg measured after 24 hrs. As to conditions: in vivo. The class given is ADME, organism-based.
In data set [16] the test system is Mus musculus. Kind of data set: Anti-hyperuricemic activity against hypoxanthine and oteracil potassium induced hyperuricemia in Kunming mouse model assessed as creatinine level at 5 mg/kg, IG administered daily (reference value: 59.12 +/- 7.198 uM). The data set is classed as functional.
Data set [17] has as its system Mus musculus. Kind of data set: Anti-hyperuricemic activity against hypoxanthine and oteracil potassium induced hyperuricemia in Kunming mouse model assessed as total bilirubin level at 5 mg/kg, IG administered daily (reference value: 12.05 +/- 4.92 uM). The class given is functional.
The nature of data set [18]: Cmax in rat at 1 mg/kg, iv measured after 24 hrs. The data set is classed as ADME, organism-based. As to conditions: in vivo. On the set-up: time 24 hrs, dose 1 mg/kg, route iv.
A short description of data set [19]: Volume of distribution in rat at 1 mg/kg, iv measured after 24 hrs. As to conditions: in vivo. The class given is ADME, organism-based.
Data set [20] has as its target Xanthine dehydrogenase/oxidase (Homo sapiens, UniProt P47989). Kind of data set: Inhibition of xanthine oxidase (unknown origin) at 10 uM relative to control.

Chain of Xanthine dehydrogenase/oxidase (P47989 whole entry): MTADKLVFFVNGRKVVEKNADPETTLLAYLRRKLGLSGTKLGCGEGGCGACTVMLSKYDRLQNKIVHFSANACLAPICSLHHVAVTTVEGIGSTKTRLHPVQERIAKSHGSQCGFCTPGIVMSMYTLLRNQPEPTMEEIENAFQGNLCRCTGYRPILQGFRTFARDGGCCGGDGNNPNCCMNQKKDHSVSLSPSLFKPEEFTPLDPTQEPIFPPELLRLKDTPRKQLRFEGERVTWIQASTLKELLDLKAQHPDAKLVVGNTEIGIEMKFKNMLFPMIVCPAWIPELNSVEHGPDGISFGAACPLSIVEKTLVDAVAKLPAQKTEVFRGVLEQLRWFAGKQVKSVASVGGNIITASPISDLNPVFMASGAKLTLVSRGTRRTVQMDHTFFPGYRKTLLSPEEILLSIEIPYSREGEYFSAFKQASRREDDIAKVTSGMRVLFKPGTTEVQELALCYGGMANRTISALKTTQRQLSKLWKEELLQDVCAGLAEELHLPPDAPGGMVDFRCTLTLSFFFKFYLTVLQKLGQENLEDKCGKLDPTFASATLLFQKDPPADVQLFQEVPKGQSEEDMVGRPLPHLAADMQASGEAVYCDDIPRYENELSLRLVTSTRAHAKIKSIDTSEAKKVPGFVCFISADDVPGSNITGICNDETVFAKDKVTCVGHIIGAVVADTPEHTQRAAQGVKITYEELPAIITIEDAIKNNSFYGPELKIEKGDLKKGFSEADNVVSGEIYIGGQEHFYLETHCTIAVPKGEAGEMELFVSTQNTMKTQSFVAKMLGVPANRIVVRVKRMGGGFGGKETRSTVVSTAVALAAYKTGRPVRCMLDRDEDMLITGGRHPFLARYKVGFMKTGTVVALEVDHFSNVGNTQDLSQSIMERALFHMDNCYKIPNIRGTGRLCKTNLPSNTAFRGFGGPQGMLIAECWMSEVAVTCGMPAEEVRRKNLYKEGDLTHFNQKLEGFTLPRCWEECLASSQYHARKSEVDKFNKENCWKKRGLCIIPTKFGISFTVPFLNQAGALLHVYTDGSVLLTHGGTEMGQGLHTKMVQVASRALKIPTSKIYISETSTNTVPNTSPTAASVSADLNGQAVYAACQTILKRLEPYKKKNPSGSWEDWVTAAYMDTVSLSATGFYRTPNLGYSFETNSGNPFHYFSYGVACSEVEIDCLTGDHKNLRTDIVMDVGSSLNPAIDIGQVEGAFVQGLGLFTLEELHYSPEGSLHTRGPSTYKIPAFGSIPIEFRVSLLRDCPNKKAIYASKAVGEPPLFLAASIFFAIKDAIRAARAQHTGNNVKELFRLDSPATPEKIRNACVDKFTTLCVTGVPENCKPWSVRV

In the case of `CCCCS(=O)(=O)Oc1ccc(/C=C/C(=O)Nc2ccccc2C)cc1OC`, in data set [1], the CC50 at 24 h came out at 56.1 µM.
Still for that read-out and setting: in the case of `CCCCS(=O)(=O)Oc1ccc(/C=C/C(=O)Nc2ccccc2I)cc1OC` it was 24.5 µM.
In the case of `CCCOC(=O)/C=C/c1ccc(OS(=O)(=O)c2ccc(Cl)cc2)c(OC)c1`, the CC50 at 24 h in [1] is 150 µM.
As for `CCCCS(=O)(=O)Oc1ccc(/C=C/C(=O)OCCC)cc1OC`, in data set [1], the CC50 at 24 h was determined as 61.8 µM.
For `CCCCOC(=O)/C=C/c1ccc(OS(=O)(=O)CCCC)c(OC)c1`, the CC50 at 24 h in [1] turned out to be 115 µM.
For `CCCCS(=O)(=O)Oc1ccc(/C=C/C(=O)OCC)cc1OC`, the area under the curve AUC(0-t) at 24 h in data set [2] worked out at 847 ng·h/mL; in data set [14], 1620 ng·h/mL. Besides, the figures for the total exposure AUC(0-inf) in [3] and in data set [12] were 851 ng·h/mL and 1640 ng·h/mL, respectively. In addition, the Cmax in data set [4] turned out to be 1030 ng/mL; in data set [18], 1930 ng/mL. Further, the Activity in data set [5] stood at 29.23 U/L; in data set [6], 30.48 mg/dL; in [10], 295 µM; in data set [16], 34.38 µM; in data set [17], 8.557 µM. In data set [7], this compound gave a clearance of 19.8 mL/min/kg. For the same compound, the CC50 at 24 h in data set [1] worked out at 14.4 µM. For the same compound, the figures for the Tmax in data set [8] and in data set [13] were 6 min and 8.34 min, respectively. Further, the half-life in data set [9] was 34.2 min; in data set [11] it was 79.2 min. The compound also returned a bioavailability in data set [15] of 63.7%. The compound also came in with a Vd in data set [19] of 0.996 L/kg.
With `CCOC(=O)/C=C/c1ccc(OS(=O)(=O)c2ccc(Cl)cc2)c(OC)c1`, the cytotoxic concentration (CC50) at 24 h in [1] was found to be 137 µM.
In the case of `COc1cc(/C=C/C(=O)Nc2cccc(C)c2)ccc1OS(=O)(=O)c1ccc(Cl)cc1`, the Activity in data set [5] is 25.21 U/L; in data set [6], 33.45 mg/dL; in [10], 552.9 µM; in data set [16], 45.88 µM; in data set [17] it was 8.296 µM. In addition, in data set [1], the CC50 at 24 h came out at 73.5 µM.
For the compound `COc1cc(/C=C/C(=O)Nc2ccc(I)cc2)ccc1OS(=O)(=O)c1ccc(Cl)cc1`, the cytotoxic concentration (CC50) at 24 h in [1] amounted to 39.4 µM.
For `CCCCS(=O)(=O)Oc1ccc(/C=C/C(=O)OCC(C)C)cc1OC`, the cytotoxic concentration (CC50) at 24 h in data set [1] worked out at 63.8 µM.
The same measure, in the same setting: in the case of `CCCCS(=O)(=O)Oc1ccc(/C=C/C(=O)Nc2ccccc2Br)cc1OC` it was 5 µM; in that of `CCCCS(=O)(=O)Oc1ccc(/C=C/C(=O)Nc2ccc(Cl)cc2)cc1OC`, 81.2 µM.
As to `Oc1ncnc2[nH]ncc12` [ALLOPURINOL], the Activity was determined as 32.11 U/L in data set [5]; 43.64 mg/dL in [6]; 309.2 µM in data set [10]; 71.97 µM in data set [16]; 10.36 µM in [17]. In data set [1], the cytotoxic concentration (CC50) at 24 h came out at 6.84 µM. The same compound registered an inhibition at 10 µM in data set [20] of 45.6%.
On to `CCCCS(=O)(=O)Oc1ccc(/C=C/C(=O)Nc2ccc(CC)cc2)cc1OC`, for which the CC50 at 24 h in [1] was 89 µM.
As to `CCCCS(=O)(=O)Oc1ccc(/C=C/C(=O)OC)cc1OC`, in [1], the CC50 at 24 h came to 208 µM.
In the case of `CCCCS(=O)(=O)Oc1ccc(/C=C/C(=O)Nc2ccc(C)cc2)cc1OC`, the 50% cytotoxic concentration (CC50) at 24 h in [1] is 26.8 µM.
Regarding `CCCCOC(=O)/C=C/c1ccc(OS(=O)(=O)c2ccc(Cl)cc2)c(OC)c1`, the CC50 at 24 h in [1] came out at 14 µM.
Still for that read-out and setting: in the case of `COC(=O)/C=C/c1ccc(OS(=O)(=O)c2ccc(Cl)cc2)c(OC)c1` it was 99.5 µM.
As to `CCCCS(=O)(=O)Oc1ccc(/C=C/C(=O)Nc2cccc(C)c2)cc1OC`, the 50% cytotoxic concentration (CC50) at 24 h in [1] came out at 33.6 µM.
As for `COc1cc(/C=C/C(=O)OCC(C)C)ccc1OS(=O)(=O)c1ccc(Cl)cc1`, the cytotoxic concentration (CC50) at 24 h in data set [1] came out at 102 µM.
Take `CCCCS(=O)(=O)Oc1ccc(/C=C/C(=O)Nc2ccccc2)cc1OC`: the CC50 at 24 h in data set [1] stood at 3.32 µM.
